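Assay format: 96-well plates, 48-hour exposure. GI50 is the concentration that inhibits growth by half. The concentration for full growth arrest is given as TGI.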 *1 amine or outer side, *2 acyl side, *3 side chain or, on linkers, in order; H or OH if unused. Where a SMILES comes first, the peptide text is derived from it. Bridges are numbered along the chain shown (N, C = ends). [ ]: non-standard residue; d: D form. The star is where a group is joined. X19 = O=C([C@H](N[*:1])c1ccc(O[C@H]2O[C@@H](CO)[C@@H](O)[C@@H](O)[C@H]2O[C@@H]2O[C@H](CO)[C@H](O)[C@H](O)[C@@H]2O)cc1)[*:2]; X18 = NC(=O)[C@@H](O[*:3])[C@H](N[*:1])C(=O)[*:2]; X20 = O=C([C@H](N[*:1])c1ccc(O)c(Cl)c1)[*:2]; d(aThr) = C[C@@H](O)[C@@H](N)C(=O)O; dHpg = N[C@@H](C(=O)O)c1ccc(O)cc1; X17 = CC(C)C/C=C/C=C/C(=O)*; dOrn = NCCC[C@@H](N)C(=O)O
Legend:
Assay in all cases: NCI-60 cell line screen, 48 h
SK-MEL-5 melanoma = system: SK-MEL-5 melanoma
SR leukemia = system: SR leukemia
SNB-75 CNS = system: SNB-75 CNS
SW-620 colon = system: SW-620 colon
SK-OV-3 ovarian = system: SK-OV-3 ovarian
PC-3 prostate = system: PC-3 prostate
HCT-116 colon = system: HCT-116 colon
HS 578T breast = system: HS 578T breast
LOX IMVI melanoma = system: LOX IMVI melanoma
OVCAR-8 ovarian = system: OVCAR-8 ovarian

SMILES | GI50 (SK-MEL-5 melanoma) [µM] | TGI (SK-MEL-5 melanoma) [µM] | GI50 (SR leukemia) [µM] | TGI (SR leukemia) [µM] | GI50 (SNB-75 CNS) [µM] | TGI (SNB-75 CNS) [µM] | GI50 (SW-620 colon) [µM] | TGI (SW-620 colon) [µM] | GI50 (SK-OV-3 ovarian) [µM] | TGI (SK-OV-3 ovarian) [µM] | GI50 (PC-3 prostate) [µM] | TGI (PC-3 prostate) [µM] | GI50 (HCT-116 colon) [µM] | TGI (HCT-116 colon) [µM] | GI50 (HS 578T breast) [µM] | TGI (HS 578T breast) [µM] | GI50 (LOX IMVI melanoma) [µM] | TGI (LOX IMVI melanoma) [µM] | GI50 (OVCAR-8 ovarian) [µM] | TGI (OVCAR-8 ovarian) [µM]
CNC(=O)c1cncc(/C=C/c2c(C)cccc2C)c1 | > 25 | > 25 | > 25 | > 25 | 4.83 | > 18.2 | > 25 | > 25 | > 25 | > 25 | > 25 | > 25 | > 25 | > 25 | 7.19 | 24.2 | 16.2 | > 25 | > 25 | > 25
C#Cc1cccc(Nc2ncnc3ccc(-c4cnc(Cl)c(NS(C)(=O)=O)c4)cc23)c1 | 0.243 | 0.704 | 0.338 | 6.35 | 0.0101 | 0.125 | 0.467 | 5.65 | 0.206 | 1.38 | 0.297 | 2.82 | 0.4 | 3.15 | 0.0815 | 0.754 | 0.281 | 1.8 | 0.825 | > 33.5
COc1ccccc1N1CCN(C(=O)c2ccc(NS(=O)(=O)c3cccc4cccnc34)cc2)CC1 | > 100 | > 100 | > 100 | > 100 | 10.1 | > 53.7 | > 100 | > 100 | > 45.5 | > 83.3 | > 100 | > 100 | > 94.2 | > 100 | > 46.4 | 99.4 | > 100 | > 100 | > 43.5 | > 100
COc1ccc(-c2csc(NC(=O)N3CCN(c4cc5c(cc4F)c(=O)c(C(=O)O)cn5C4CC4)CC3)n2)cc1 | – | – | 1.93 | 13 | 2.47 | 17.4 | 5.04 | > 100 | – | – | 2.98 | > 100 | 1.72 | > 100 | 2.94 | > 100 | – | – | – | –
O=C(O[C@H]1CN[C@H](C#Cc2cc3ncnc(Nc4ccc(OCc5cccc(F)c5)c(Cl)c4)c3s2)C1)N1CCOCC1 | 8.55 | > 25 | 8.01 | > 23.7 | 7.73 | > 25 | 12.2 | > 25 | 0.0356 | > 25 | 4.93 | > 25 | 7.99 | > 25 | 7.23 | > 25 | 7.72 | > 25 | 7.35 | > 25
CC(C)C/C=C/C=C/C(=O)N[C@@H](CC(N)=O)C(=O)N[C@@H]1C(=O)N[C@H](c2ccc(O)cc2)C(=O)N[C@H](CCCN)C(=O)N[C@H]([C@@H](C)O)C(=O)N[C@H](c2ccc(O)cc2)C(=O)N[C@H](c2ccc(O)cc2)C(=O)N[C@H]([C@H](C)O)C(=O)N[C@H](Cc2ccccc2)C(=O)N[C@H](CCCN)C(=O)N[C@H](c2ccc(O[C@H]3O[C@@H](CO)[C@@H](O)[C@@H](O)[C@H]3O[C@@H]3O[C@H](CO)[C@H](O)[C@H](O)[C@@H]3O)cc2)C(=O)N[C@H]([C@H](C)O)C(=O)N[C@H](c2ccc(O)cc2)C(=O)NCC(=O)N[C@H](CC(C)C)C(=O)N[C@H](C)C(=O)N[C@H](c2ccc(O)c(Cl)c2)C(=O)O[C@@H]1C(N)=O (X17-N[X18][dHpg][dOrn][d(aThr)][dHpg][dHpg][dT][dF][dOrn][X19][dT][dHpg]G[dL][dA][X20]; ester 2-C) | 22.1 | 44.6 | > 100 | > 100 | 29.4 | 79.8 | 26.2 | 74.8 | 25.3 | 64.9 | 44 | > 100 | 32.9 | > 100 | 27.8 | 82.1 | 29.5 | > 100 | 46.8 | > 100
